Reference: patent publication US20100234435A1, “CYCLOALKYLAMINO ACID DERIVATIVES” (priority 2007, published 2010)
Structures can show the parent of a compound that is named as a salt.

Columns and labels:
S1P1 = target: T1, S1P1 (Homo sapiens, UniProt P21453); test: Radioligand binding assay, 33P-S1P labelled S1P1 receptor; conditions: 33P-S1P labelled receptors
T1 construct: expressed in transfected cells; membranes
Method: (§1) HEK293 or CHO cells expressing S1P1-5, are prepared in ˜0.5×10^5 cells/well. Cells are plated into each well of a 6-well plate in 2 ml of growth media (OptiMEM, Invitrogen). Two micrograms receptor plasmid DNA is mixed in 200 ul OptiMEM, and combined with 6 ul Lipofectamine (2000-9, Invitrogen). The mixture is added drop wise to 2 ml of growth media covering the cells in each well. The cells are allowed to transfect for 8-18 hours at room temperature. The OptiMEM transfection medium is replaced with 2 ml fresh serum-containing medium an incubated for 48 hours. The cells are diluted 1:10 in selection media (OptiMEM. Invitrogen) containing 0.8 mg/ml G418 in 10 cm dishes. Colonies are allowed to form (˜1-2 weeks), and 12 colonies from each dish are independently harvested with cloning disks and placed into 24-well plates.
(§2) Cell membranes from CHO-S1P1-5 or HEK-S1P1-5 transfected cells are prepared by homogenizing the cells in an ice cold solution containing 25 mM Tris, 5 mM EDTA, 5 mM EGTA, and Complete Protease Inhibitor Cocktail, EDTA-Free (Roche #1 873 580). Cells are lysed by dounce homogenization and centrifugation at 20,000×g for 20 minutes at 4° C. Membrane pellets are resuspended in the same buffer and centrifuged again at 20,000×g for 20 minutes at 4° C. Final membrane pellet is resuspended in 20 mM HEPES, pH 7.5, 5 mM MgCl2, 1 mM CaCl2. Protein concentration is determined using the Micro BCA protein assay (Pierce #23235).
(§3) Serial dilutions of test compounds in DMSO are prepared in 96 well polypropylene plates. Using the FX robot 1:50 intermediate dilutions are made to assay buffer (20 mM HEPES, pH 7.5, 5 mM MgCl2, 1 mM CaCl2, 4 mg/ml fatty-acid free BSA). This intermediate is further diluted 1:10 to the final assay reaction. Final DMSO concentration in the reaction is 0.2%. Final reaction contains 50 pM ^33P-S1P (Perkin Elmer; Special Order), and 2.5 μg of cell membranes. The reaction is incubated at room temperature for 30 minutes and stopped by filtration through GF/B UniFilter Plates (Perkin Elmer #6005177) and washed four times with wash buffer containing 50 mM Tris pH 7.4, 0.025% Tween-20. The filter plates are dried for approximately 20 minutes in an oven at 50° C. Back seals are adhered to the filter plates and 40 μl of Microscint-20 scintillation fluid is added (Perkin Elmer #6013621). The filter plates are sealed, shaken for 30 minutes at room temperature, and counted on a Top Count (PerkinElmer).

S1P2 = target: T2, S1P2 (Homo sapiens, UniProt O95136); test: Radioligand binding assay, 33P-S1P labelled S1P2 receptor; conditions: 33P-S1P labelled receptors
T2 construct: expressed in transfected cells; membranes
Method: as §1, §2
(§4) Serial dilutions of test compounds in DMSO are prepared in 96 well polypropylene plates. Using the FX robot 1:50 intermediate dilutions are made to assay buffer (20 mM HEPES, pH 7.5, 5 mM MgCl2, 1 mM CaCl2, 4 mg/ml fatty-acid free BSA). This intermediate is further diluted 1:10 to the final assay reaction. Final DMSO concentration in the reaction is 0.2%. […] The filter plates are sealed, shaken for 30 minutes at room temperature, and counted on a Top Count (PerkinElmer).

S1P3 = target: T3, S1P3 (Homo sapiens, UniProt Q99500); test: Radioligand binding assay, 33P-S1P labelled S1P3 receptor; conditions: 33P-S1P labelled receptors
T3 construct: expressed in transfected cells; membranes
Method: as §1, §2, §3

S1P4 = target: T4, S1P4 (Homo sapiens, UniProt O95977); test: Radioligand binding assay, 33P-S1P labelled S1P4 receptor; conditions: 33P-S1P labelled receptors
T4 construct: expressed in transfected cells; membranes
T4 sequence (O95977 1-384): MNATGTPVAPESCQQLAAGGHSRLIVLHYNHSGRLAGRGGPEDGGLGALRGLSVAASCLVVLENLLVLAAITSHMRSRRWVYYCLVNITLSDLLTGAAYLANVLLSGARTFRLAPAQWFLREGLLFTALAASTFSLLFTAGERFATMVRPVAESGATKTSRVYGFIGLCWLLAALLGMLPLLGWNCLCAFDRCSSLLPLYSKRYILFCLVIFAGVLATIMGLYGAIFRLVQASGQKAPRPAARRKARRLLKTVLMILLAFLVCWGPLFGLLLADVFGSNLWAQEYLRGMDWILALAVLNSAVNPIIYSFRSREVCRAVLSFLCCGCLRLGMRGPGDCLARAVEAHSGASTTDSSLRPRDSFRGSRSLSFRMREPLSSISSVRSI
Method: as §1, §2, §3

S1P5 = target: T5, S1P5 (Homo sapiens, UniProt Q9H228); test: Radioligand binding assay, 33P-S1P labelled S1P5 receptor; conditions: 33P-S1P labelled receptors
T5 construct: expressed in transfected cells; membranes
Method: as §1, §2, §4

[1] = Terminal half life and clearance from blood samples; assay type: in vivo, CD1 mice; conditions: CD1, mouse, oral; for clearance: read-out: Cl (ml/min/kg) (clearance)
Source text: Agonium of S1P1 results in S1P1 internalization, inhibiting lymphocyte egress into circulation, and is clinically presented as lymphopenia (Chiba, Pharmacology & Therapeutics 2005; 108,308-319, 2005). The following protocol may be used to assess the potential induction of lymphopenia for the test compounds when administered as a single oral dose to CD1 mice.
A suspension of 5% Gelucire may be used as the vehicle to prepare dosing formulations and to dose vehicle control animals. Test compound is weighed and transferred to a 15 mL Falcon tube or equivalent to make stock formulations. The appropriate amount of 5% Gelucire vehicle is then added to the tube. The resulting formulation is sonicated with a probe sonicator until no obvious particulate matter is apparent. About 500 mL Gelucire (Gattefosse, St-Priest, Cedex, France) is melted in a 1000 W microwave oven set for 3 minutes on high power. The appropriate amount of Gelucire is added to deionized water to form 5% (vol/vol) aqueous Gelucire.
Blood samples (˜0.6-0.8 mL) may be collected via intracardiac puncture at appropriate time points. The mice are anesthetized by carbon dioxide and euthanized via exanguination by intracardiac puncture. Blood samples are obtained and placed in tubes containing EDTA. Lymphocytes (L, %) count is measured with Abbott Cell-Dyn 3700 automated analyzer.
Samples of blood were taken to determine terminal half life (T½) and clearance of the compounds, using well accepted methods for such assays.

T3 sequence (Q99500 whole entry): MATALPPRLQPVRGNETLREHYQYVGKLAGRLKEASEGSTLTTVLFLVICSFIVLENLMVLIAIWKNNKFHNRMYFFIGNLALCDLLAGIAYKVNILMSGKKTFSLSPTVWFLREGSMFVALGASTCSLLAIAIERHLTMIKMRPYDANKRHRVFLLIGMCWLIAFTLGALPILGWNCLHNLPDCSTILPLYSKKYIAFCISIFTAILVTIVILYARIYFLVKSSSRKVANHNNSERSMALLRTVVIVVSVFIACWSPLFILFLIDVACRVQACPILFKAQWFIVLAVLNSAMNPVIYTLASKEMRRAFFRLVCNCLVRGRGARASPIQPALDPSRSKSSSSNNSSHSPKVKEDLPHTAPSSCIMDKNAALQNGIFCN
T1 sequence (P21453 whole entry): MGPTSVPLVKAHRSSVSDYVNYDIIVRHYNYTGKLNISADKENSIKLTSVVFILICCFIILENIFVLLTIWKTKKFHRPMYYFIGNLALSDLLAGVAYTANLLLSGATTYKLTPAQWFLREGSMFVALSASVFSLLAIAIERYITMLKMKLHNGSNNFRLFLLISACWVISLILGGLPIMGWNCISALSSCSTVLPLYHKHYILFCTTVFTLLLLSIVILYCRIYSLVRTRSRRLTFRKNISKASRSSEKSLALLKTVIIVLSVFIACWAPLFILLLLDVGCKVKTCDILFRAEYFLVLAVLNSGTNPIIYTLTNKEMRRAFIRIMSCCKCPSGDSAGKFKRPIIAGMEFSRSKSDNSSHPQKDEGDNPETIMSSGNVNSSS
T5 sequence (Q9H228 whole entry): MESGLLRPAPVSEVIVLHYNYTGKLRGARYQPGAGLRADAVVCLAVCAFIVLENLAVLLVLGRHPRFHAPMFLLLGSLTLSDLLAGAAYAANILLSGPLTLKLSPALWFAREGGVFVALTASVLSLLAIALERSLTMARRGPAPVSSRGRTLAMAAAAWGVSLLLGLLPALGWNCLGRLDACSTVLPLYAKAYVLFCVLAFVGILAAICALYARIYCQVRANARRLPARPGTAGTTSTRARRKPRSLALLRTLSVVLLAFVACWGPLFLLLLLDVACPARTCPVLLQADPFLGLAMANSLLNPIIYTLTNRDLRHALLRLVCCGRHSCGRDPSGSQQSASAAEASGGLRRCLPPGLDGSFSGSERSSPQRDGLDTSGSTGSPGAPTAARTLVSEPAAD
T2 sequence (O95136 whole entry): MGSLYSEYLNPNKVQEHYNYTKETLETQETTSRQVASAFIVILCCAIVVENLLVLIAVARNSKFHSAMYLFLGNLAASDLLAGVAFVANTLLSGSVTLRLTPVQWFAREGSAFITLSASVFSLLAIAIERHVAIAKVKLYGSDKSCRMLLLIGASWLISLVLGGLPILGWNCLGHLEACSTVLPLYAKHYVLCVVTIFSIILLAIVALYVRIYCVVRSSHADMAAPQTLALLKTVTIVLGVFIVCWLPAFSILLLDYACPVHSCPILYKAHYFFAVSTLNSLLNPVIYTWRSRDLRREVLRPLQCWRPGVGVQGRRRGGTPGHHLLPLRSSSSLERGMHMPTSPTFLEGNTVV

| SMILES | Ki (S1P1) | IC50 (S1P2) | IC50 (S1P3) | IC50 (S1P4) | IC50 (S1P5) | half-life [1] | clearance [1] |
| --- | --- | --- | --- | --- | --- | --- | --- |
| CC(C)Cc1ccc(-c2nc(-c3ccc([C@H](C)N[C@H]4C[C@@H](C(=O)O)C4)cc3)no2)cc1 [cis-3-{[(1S)-1-{4-[5-(4-isobutylphenyl)-1,2,4-oxadiazol-3-yl]phenyl}ethyl]amino}cyclobutanecarboxylic acid, hydrochloride salt] | 2.7 nM | > 1000 nM | > 1000 nM | 331 nM | 11 nM | 6.7 h | 5.11 mL/min/kg |
| CC(C)Cc1ccc(-c2nc(-c3ccc([C@@H](C)N[C@H]4C[C@@H](C(=O)O)C4)cc3)no2)cc1 [cis-3-{[(1R)-1-{4-[5-(4-Isobutylphenyl)-1,2,4-oxadiazol-3-yl]phenyl}ethyl]amino}cyclobutanecarboxylic acid] | 0.29 nM | > 1000 nM | > 1000 nM | 35 nM | 2.9 nM | 5.2 h | 6 mL/min/kg |
| CC(C)Cc1ccc(-c2nc(-c3ccc([C@@H](C)N[C@H]4C[C@H](C(=O)O)C4)cc3)no2)cc1 [trans-3-{[(1R)-1-{-4-[5-(4-Isobutylphenyl)-1-1,2,4-oxadiazol-3-yl]phenyl}ethyl]amino}cyclobutanecarboxylic acid] | 4.6 nM | > 1000 nM | > 1000 nM | 438 nM | 15 nM | – | – |
| CCCCCCCCCCCCC/C=C/[C@@H](O)[C@@H](N)COP(=O)(O)O [Example S1P, sphingosine-1-phosphate, reference compound] | 0.16 nM | – | 7.1 nM | 15 nM | – | – | – |
